Starred links: 1 amine or outer side, 2 acyl side, 3 side chain; linkers in the order of their positions; H or OH if unused. Positions of bridges follow the written chain, without caps; N, C: chain ends. Residues, ends and D or L forms follow the SMILES beside them. No end group written: not given here. mXylylene = c1cc(C[*:1])cc(C[*:2])c1
What was measured:
CaVβ2a core = CaVβ2a core (Rattus norvegicus, UniProt Q8VGC3); test: Isothermal titration calorimetry, AID peptide:CaVβ2a binding; conditions: for Kd: 150 mM KCl, 10 mM potassium phosphate, 20 μM peptide into 2 μM CaVβ2a core
Source text: Having determined that the backbone staples are able to affect AID helix content (Figure 1) and are structurally compatible with the CaVβ-AID interaction (Figure 2), we used isothermal titration calorimetry (ITC) to investigate whether the AID staples impacted binding thermodynamics. […] (Figure 3A, Table 1). This binding reaction is driven by a favorable enthalpic component (ΔH = −15.6 ± 2.4 kcal mol^–1) that is opposed by a large entropic cost (ΔS = −16.7 ± 6.0 cal mol^–1 K^–1) that most likely results from the requirement to reduce the degrees of freedom of the highly disordered ligand upon binding.
Titrations were performed at 15 °C using a VP-ITC microcalorimeter (MicroCal). Samples were dialyzed overnight at 4 °C (Slide-A-Lyzer, 2 kDa molecular weight cutoff, Thermo Scientific) against 150 mM KCl and 10 mM potassium phosphate, pH 7.3. After 30 min centrifugation at 40 000 rpm at 4 °C, protein concentrations were determined by absorbance at 280 nm.[91] All samples were degassed for 5 min prior to loading into the calorimeter. CaV1.2 CaVβ2a core at a concentration of 2 μM was titrated with 20 μM modified or unmodified AID peptide with one 4 μL injection followed by 29 injections of 10 μL of titrant. To correct the baseline, heat of dilution from titrations of injectant into buffer was subtracted. Data were processed with MicroCal Origin 7.0 using a single site binding model.

CaV1.2:CaVβ3 = target: T1, CaV1.2:CaVβ3 (Oryctolagus cuniculus, UniProt P54286); test: Peptide injection competition, two-electrode voltage clamp, CaV1.2:CaVβ3 channels in Xenopus oocytes; type: cell-based, human CaV1.2; Xenopus oocytes; conditions: for V1/2, midpoint of activation: Ca2+ charge carrier
T1 construct: expressed in transfected cells; host or cells: Xenopus oocytes (mRNA injection)
T1 sequence (P54286 whole entry): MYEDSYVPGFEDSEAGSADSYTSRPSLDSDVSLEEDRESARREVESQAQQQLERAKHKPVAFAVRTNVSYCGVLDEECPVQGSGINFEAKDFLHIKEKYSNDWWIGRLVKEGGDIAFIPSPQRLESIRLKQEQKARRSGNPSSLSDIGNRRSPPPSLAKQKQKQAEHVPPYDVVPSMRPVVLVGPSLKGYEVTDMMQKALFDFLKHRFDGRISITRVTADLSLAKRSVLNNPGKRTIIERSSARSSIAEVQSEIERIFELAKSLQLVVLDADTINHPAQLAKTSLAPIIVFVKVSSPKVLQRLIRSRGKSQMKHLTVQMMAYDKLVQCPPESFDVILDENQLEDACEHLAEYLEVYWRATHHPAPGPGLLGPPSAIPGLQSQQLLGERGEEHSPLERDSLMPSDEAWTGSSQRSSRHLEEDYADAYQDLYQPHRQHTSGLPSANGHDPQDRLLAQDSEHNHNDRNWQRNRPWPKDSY

CaV1.2-Y437A:CaVβ2a = CaV1.2-Y437A:CaVβ2a (Rattus norvegicus, UniProt Q8VGC3); test: Peptide injection competition, two-electrode voltage clamp, CaV1.2-Y437A:CaVβ2a channels in Xenopus oocytes; conditions: 400 μM peptide; for ti300, percent inactivation at 300 ms / A1, relative amplitude of fast inactivation component / A2, relative amplitude of second inactivation component / τ1, fast inactivation time constant / τ2, second inactivation time constant: +20 mV; for ti300, percent inactivation at 300 ms / V1/2, midpoint of activation: Ca2+ charge carrier; for ti300, percent inactivation at 300 ms / A1, relative amplitude of fast inactivation component / A2, relative amplitude of second inactivation component / τ1, fast inactivation time constant / τ2, second inactivation time constant / V1/2, midpoint of activation / Imax, maximal current amplitude: mean ± SEM
[1] = Circular dichroism of AID peptides (helical content); type: physicochemical; conditions: 70 μM, 4 °C, 50 mM KCl, 10 mM potassium phosphate, pH 7.3, 2 mm cuvette, triplicate points
Method: Circular dichroism spectra were measured in a 2 mm path length quartz cuvette (Hellma), 50 mM KCl, and 10 mM KH2PO4/K2HPO4, pH 7.3, using an Aviv model 215 spectropolarimeter (Aviv Biomedical) equipped with a Peltier temperature controller. Wavelength scans from 320 to 190 nm were taken at 4 °C. Each point was determined in triplicate from the same sample and subtracted by the average of a triplicate buffer scan. Each sample was checked for purity by HPLC. Molar ellipticity was calculated as follows: θ = 100(Δm)/(Cnl), where Δm is the CD signal in millidegrees after buffer subtraction, C is the millimolar peptide concentration, n is the number of residues in the peptide, and l is the cuvette path length in centimeters.

[2] = ITC, 15 °C, pH 7.3, single site model, n = 3 (Cav1.2 AID), 2 (AID-CEN), 3 (AID-CAP)
[3] = 2.8 mM peptide, over 30 min postinjection
[4] = 5 min postinjection, 2.8 mM peptide, +20 mV, double exponential fit, mean ± SEM, N = 6 (AID-CAP), 7 (AID)
[5] = 5 min postinjection, 2.8 mM peptide, +20 mV, monoexponential fit, mean ± SEM, N = 6 (AID-CAP), 7 (AID)
[6] = 5 min postinjection, 2.8 mM peptide, mean ± SEM, N = 6 (AID-CAP), 7 (AID)
[7] = 30 min postinjection, 2.8 mM peptide, +20 mV, monoexponential fit, mean ± SEM, N = 6 (AID-CAP), 7 (AID)
[8] = 30 min postinjection, 2.8 mM peptide, mean ± SEM, N = 6 (AID-CAP), 7 (AID)
[9] = ITC, 15 °C, pH 7.3, n = 3 (Cav1.2 AID), 2 (AID-CEN), 3 (AID-CAP)

CC[C@H](C)[C@H](NC(=O)[C@H](Cc1c[nH]c2ccccc12)NC(=O)[C@@H]1CSCc2cccc(c2)CSC[C@H](NC(=O)[C@H](CC(C)C)NC(=O)[C@H](CC(=O)O)NC(=O)[C@H](CCC(=O)O)NC(=O)[C@H](CCC(=O)O)NC(=O)[C@H](CC(C)C)NC(=O)[C@@H]2CCCN2C(=O)[C@H](CO)NC(=O)[C@H](C)N)C(=O)NCC(=O)N[C@@H](Cc2ccc(O)cc2)C(=O)N[C@@H](CC(C)C)C(=O)N1)C(=O)N[C@H](C(=O)N[C@@H](CCC(N)=O)C(=O)N[C@@H](C)C(=O)N[C@@H](CCC(=O)O)C(N)=O)[C@@H](C)O [AID-CEN] (H-ASPLEEDLCGYLCWITQAE-NH2; linker 9-13 via mXylylene)
Kd (CaVβ2a core; [2]): 5.2 ± 1.5 nM

CC[C@H](C)[C@H](NC(=O)[C@H](Cc1c[nH]c2ccccc12)NC(=O)[C@H](CC(=O)O)NC(=O)[C@H](CC(C)C)NC(=O)[C@H](Cc1ccc(O)cc1)NC(=O)CNC(=O)[C@H](CCCCN)NC(=O)[C@H](CC(C)C)NC(=O)[C@H](CC(=O)O)NC(=O)[C@@H]1CSCc2cccc(c2)CSC[C@H](N)C(=O)N[C@@H](CO)C(=O)N2CCC[C@H]2C(=O)N[C@@H](CC(C)C)C(=O)N[C@@H](CCC(=O)O)C(=O)N1)C(=O)N[C@H](C(=O)N[C@@H](CCC(N)=O)C(=O)N[C@@H](C)C(=O)N[C@@H](CCC(=O)O)C(N)=O)[C@@H](C)O [AID-CAP] (H-CSPLECDLKGYLDWITQAE-NH2; linker 1-6 via mXylylene)
Kd (CaVβ2a core; [2]): 5.1 ± 1.6 nM

CQQLEEDLKGYLDWITQAE-NH2 [AID]
P vs HotA, Figure 7B, E, F (ti300, Imax) (CaV1.2:CaVβ3; 2.8 mM peptide vs 4 mM HotA): < 0.001
P vs HotA, Figure 7C, D (inactivation τ, ΔV1/2) (CaV1.2:CaVβ3; 2.8 mM peptide vs 4 mM HotA): < 0.05
change in channel inactivation kinetics, in words (CaV1.2:CaVβ3; [3]): changed from one having two components to a monoexponential process
current rundown, in words (CaV1.2:CaVβ3; [3]): strongly increased current rundown
A1 (CaV1.2:CaVβ3; [4]): 54.0 ± 2.7%
A2 (CaV1.2:CaVβ3; [4]): 34.1 ± 1.4%
τ1 (CaV1.2:CaVβ3; [4]): 40.0 ± 5.2 ms
τ2 (CaV1.2:CaVβ3; [4]): 354.4 ± 119.2 ms
A1 (CaV1.2:CaVβ3; [5]): 76.9 ± 3.1%
τ1 (CaV1.2:CaVβ3; [5]): 62.6 ± 7.6 ms
ti300, percent inactivation at 300 ms (CaV1.2:CaVβ3; 5 min postinjection, 2.8 mM peptide, +20 mV, mean ± SEM, N = 6 (AID-CAP), 7 (AID)): 73.4 ± 2.0%
V1/2, midpoint of activation (CaV1.2:CaVβ3; [6]): 10.4 ± 2.2 mV
Imax, maximal current amplitude (CaV1.2:CaVβ3; [6]): –0.860 ± 0.096
A1 (CaV1.2:CaVβ3; [7]): 65.0 ± 4.0%
τ1 (CaV1.2:CaVβ3; [7]): 118.2 ± 11.0 ms
ti300, percent inactivation at 300 ms (CaV1.2:CaVβ3; 30 min postinjection, 2.8 mM peptide, +20 mV, mean ± SEM, N = 6 (AID-CAP), 7 (AID)): 49.8 ± 1.9%
V1/2, midpoint of activation (CaV1.2:CaVβ3; [8]): 21.0 ± 2.0 mV
Imax, maximal current amplitude (CaV1.2:CaVβ3; [8]): –0.116 ± 0.010
effect on CaV1.2α1:CaVβ3 interaction, in words (CaV1.2:CaVβ3; 30 min postinjection, AID, AID-CAP 2.8 mM, HotA 4 mM): near complete disruption of the CaV1.2α1:CaVβ3 interaction
P vs HotA, all panels of Figure 5 (ti300, A1, ΔV1/2, Imax) (CaV1.2-Y437A:CaVβ2a): < 0.001
effect on inactivation / CaVβ binding, in words (CaV1.2-Y437A:CaVβ2a; 30 min postinjection): interfered completely with CaVβ binding
rundown of Imax (CaV1.2-Y437A:CaVβ2a; over 30 min postinjection, vs water or HotA): consistently higher rundown
ti300, percent inactivation at 300 ms (CaV1.2-Y437A:CaVβ2a; 5 min postinjection): 64.9 ± 1.9%
A1, relative amplitude of fast inactivation component (CaV1.2-Y437A:CaVβ2a; 5 min postinjection): 48.5 ± 1.8%
A2, relative amplitude of second inactivation component (CaV1.2-Y437A:CaVβ2a; 5 min postinjection): 24.1 ± 1.6%
τ1, fast inactivation time constant (CaV1.2-Y437A:CaVβ2a; 5 min postinjection): 35.0 ± 1.5 ms
τ2, second inactivation time constant (CaV1.2-Y437A:CaVβ2a; 5 min postinjection): 251.5 ± 16.1 ms
V1/2, midpoint of activation (CaV1.2-Y437A:CaVβ2a; 5 min postinjection): 2.9 ± 1.7 mV
Imax, maximal current amplitude (CaV1.2-Y437A:CaVβ2a; 5 min postinjection): –0.883 ± 0.111
ti300, percent inactivation at 300 ms (CaV1.2-Y437A:CaVβ2a; 30 min postinjection): 44.8 ± 2.1%
A1, relative amplitude of fast inactivation component (CaV1.2-Y437A:CaVβ2a; 30 min postinjection): 24.5 ± 3.0%
A2, relative amplitude of second inactivation component (CaV1.2-Y437A:CaVβ2a; 30 min postinjection): 31.0 ± 1.9%
τ1, fast inactivation time constant (CaV1.2-Y437A:CaVβ2a; 30 min postinjection): 53.3 ± 14.4 ms
τ2, second inactivation time constant (CaV1.2-Y437A:CaVβ2a; 30 min postinjection): 304.0 ± 50.9 ms
V1/2, midpoint of activation (CaV1.2-Y437A:CaVβ2a; 30 min postinjection): 15.1 ± 2.0 mV
Imax, maximal current amplitude (CaV1.2-Y437A:CaVβ2a; 30 min postinjection): –0.242 ± 0.021
CD spectrum / helical content, in words [1]: absent
Kd (CaVβ2a core; [2]): 6.6 ± 2 nM
ΔH (CaVβ2a core; [9]): –15.6 ± 2.4 kcal mol^–1
ΔS (CaVβ2a core; [9]): –16.7 ± 6.0 cal mol^–1 K^–1
N (binding stoichiometry) (CaVβ2a core; [2]): 0.94 ± 0.07
Kd/Kd CaV1.2 AID (CaVβ2a core; ratio of Kd to that of CaV1.2 AID): 1
